Tested on: AGS human gastric adenocarcinoma cells
Assay: Human microarray study (Affymetrix Clariom S) of treated AGS cells
Type: cell-based
Details: two days
Method: AGS human gastric adenocarcinoma cells were treated with compound I-1, or DMSO alone (as a negative control) for two days. After two days, RNA was isolated from compound I-1 treated cells and DMSO treated cells, in duplicate, and subjected to microarray analysis using AFFYMETRIX CLARIOM S microarrays. Data were represented as fold change relative to the compound I-1 treated cells, negative values represented genes that were on higher in compound I-1 treated cells than in DMSO treated cells, and positive values represented genes that were on higher in DMSO treated cells than in compound I-1 treated cells. Values were averaged for the duplicate samples. We included data for the genes whose expression was altered by more than 3 fold, either up or down, in response to compound I-1.
Negative numbers indicate fold upregulation upon drug treatment. Positive numbers indicate fold downregulation upon drug treatment. […] In addition, Chac1, PCK2, and SLC7A11 were all shown to have a tumor promoting activity and to be associated with the more dangerous and lethal forms of cancer, and these three genes were the three most strongly repressed genes measured in this analysis. There were other examples in the data that supported this model, but the overall model was that compound I-1 increased the expression of tumor suppressor genes, and decreased the expression of tumor promoting genes.

CCC(=O)N1CCc2cc(-c3ccc(C(=O)NCc4cccnc4)cc3)ccc21 [Compound I-1]
expression of tumor promoting genes (microarray, overall model): decreased | expression of tumor suppressor genes (microarray, overall model): increased | Fold Change ABHD4 (negative = upregulated): −15.57 fold | Fold Change ACAT2 (negative = upregulated): −5.41 fold | Fold Change ACSS2 (negative = upregulated): −8.4 fold | Fold Change AKR1B10 (negative = upregulated): −4.25 fold | Fold Change AKR1B15 (negative = upregulated): −3.05 fold | Fold Change AKR1C1 (negative = upregulated): −16.86 fold | Fold Change AKR1C2 (negative = upregulated): −6.95 fold | Fold Change AKR1C3 (negative = upregulated): −8.57 fold | Fold Change ANO6 (negative = upregulated): −3.15 fold | Fold Change ARHGEF3 (negative = upregulated): −6.93 fold | Fold Change ARRDC3 (negative = upregulated): −5.99 fold | Fold Change AVPI1 (negative = upregulated): −3.14 fold | Fold Change BCL2L11 (negative = upregulated): −4 fold | Fold Change BCL6 (negative = upregulated): −3.01 fold | Fold Change BHLHE40 (negative = upregulated): −7.94 fold | Fold Change CA5B (negative = upregulated): −4.1 fold | Fold Change CBFA2T2 (negative = upregulated): −3.24 fold | Fold Change CCNG2 (negative = upregulated): −3.58 fold | Fold Change CDA (negative = upregulated): −3.79 fold | Fold Change CDC42EP4 (negative = upregulated): −3.75 fold | Fold Change CDKN1A (negative = upregulated): −3.11 fold | Fold Change CNNM2 (negative = upregulated): −3.68 fold | Fold Change CREBRF (negative = upregulated): −5.55 fold | Fold Change CSF1 (negative = upregulated): −3.31 fold | Fold Change CXCL17 (negative = upregulated): −4.1 fold | Fold Change CYP51A1 (negative = upregulated): −4.74 fold | Fold Change DBP (negative = upregulated): −10.5 fold | Fold Change DHCR7 (negative = upregulated): −8.77 fold | Fold Change DHCR24 (negative = upregulated): −3.44 fold | Fold Change DNAJB4 (negative = upregulated): −3.09 fold | Fold Change DNAJB5 (negative = upregulated): −3.84 fold | Fold Change DNMBP (negative = upregulated): −4 fold | Fold Change DUSP10 (negative = upregulated): −27.17 fold | Fold Change EBP (negative = upregulated): −3.69 fold | Fold Change EDN2 (negative = upregulated): −3 fold | Fold Change EFNA1 (negative = upregulated): −5.15 fold | Fold Change EPHA4 (negative = upregulated): −4.56 fold | Fold Change EYA3 (negative = upregulated): −3.81 fold | Fold Change F2RL1 (negative = upregulated): −3.37 fold | Fold Change FAM46A (negative = upregulated): −4.76 fold | Fold Change FAM46C (negative = upregulated): −3.6 fold | Fold Change FAM160A1 (negative = upregulated): −3.86 fold | Fold Change FASN (negative = upregulated): −5.82 fold | Fold Change FDFT1 (negative = upregulated): −7.56 fold | Fold Change FGA (negative = upregulated): −13.67 fold | Fold Change FGG (negative = upregulated): −4.11 fold | Fold Change G6PD (negative = upregulated): −3.11 fold | Fold Change GALM (negative = upregulated): −3.17 fold | Fold Change GATSL2 (negative = upregulated): −3.58 fold | Fold Change GDF15 (negative = upregulated): −4.83 fold | Fold Change GNE (negative = upregulated): −3.21 fold | Fold Change GRHL3 (negative = upregulated): −4.96 fold | Fold Change HHLA2 (negative = upregulated): −3.59 fold | Fold Change HK1 (negative = upregulated): −6.34 fold | Fold Change HMGCR (negative = upregulated): −4.8 fold | Fold Change HMGCS1 (negative = upregulated): −9.9 fold | Fold Change HMOX1 (negative = upregulated): −14.23 fold | Fold Change HSPA1A; HSPA1B (negative = upregulated): −5.34 fold | Fold Change HSPA1B; HSPA1A (negative = upregulated): −5.04 fold | Fold Change HSPB8 (negative = upregulated): −4.71 fold | Fold Change IDI1 (negative = upregulated): −5.77 fold | Fold Change IL1RN (negative = upregulated): −4.04 fold | Fold Change ILF2 (negative = upregulated): −3.2 fold | Fold Change INPP5D (negative = upregulated): −3.12 fold | Fold Change INSIG1 (negative = upregulated): −8.5 fold | Fold Change JAG1 (negative = upregulated): −3.31 fold | Fold Change JAK2 (negative = upregulated): −3.6 fold | Fold Change KAT6B (negative = upregulated): −3.77 fold | Fold Change LEMD1 (negative = upregulated): −3.16 fold | Fold Change LIPG (negative = upregulated): −3.65 fold | Fold Change LNX1 (negative = upregulated): −4.32 fold | Fold Change LPIN1; MIR548S (negative = upregulated): −3.22 fold | Fold Change LY6D (negative = upregulated): −4.81 fold | Fold Change LYPD3 (negative = upregulated): −4.09 fold | Fold Change MICA (negative = upregulated): −3.66 fold | Fold Change MICB (negative = upregulated): −12.71 fold | Fold Change MID1 (negative = upregulated): −3.25 fold | Fold Change MSMO1 (negative = upregulated): −9.47 fold | Fold Change MT1E (negative = upregulated): −3.03 fold | Fold Change MT1L (negative = upregulated): −3 fold | Fold Change MTSS1L (negative = upregulated): −3.41 fold | Fold Change MVD (negative = upregulated): −3.82 fold | Fold Change MVK (negative = upregulated): −3.11 fold | Fold Change MXD1 (negative = upregulated): −6.23 fold | Fold Change MYLIP; MIR4639 (negative = upregulated): −3.88 fold | Fold Change NEU1 (negative = upregulated): −4.89 fold | Fold Change NEURL3 (negative = upregulated): −3.41 fold | Fold Change NFAT5 (negative = upregulated): −3.32 fold | Fold Change NFKBIA (negative = upregulated): −4.97 fold | Fold Change NR1D1 (negative = upregulated): −23.3 fold | Fold Change NR1D2 (negative = upregulated): −3.01 fold | Fold Change NSDHL (negative = upregulated): −3.29 fold | Fold Change OCLM (negative = upregulated): −3.22 fold | Fold Change OSGIN1 (negative = upregulated): −3.63 fold | Fold Change OTUD1 (negative = upregulated): −3.29 fold | Fold Change OVOL1 (negative = upregulated): −4.01 fold | Fold Change PADI1 (negative = upregulated): −3.48 fold | Fold Change PCDH7 (negative = upregulated): −3.81 fold | Fold Change PDGFRL (negative = upregulated): −6.65 fold | Fold Change PERI; MIR6883 (negative = upregulated): −16.75 fold | Fold Change PGM2L1 (negative = upregulated): −3.76 fold | Fold Change PIM1 (negative = upregulated): −3.7 fold | Fold Change PLK2 (negative = upregulated): −3.13 fold | Fold Change PLPP3 (negative = upregulated): −3.74 fold | Fold Change POLR2L (negative = upregulated): −3.14 fold | Fold Change PRDM1 (negative = upregulated): −3.06 fold | Fold Change PRSS22 (negative = upregulated): −4.6 fold | Fold Change PSCA (negative = upregulated): −3.18 fold | Fold Change PVRL1 (negative = upregulated): −3.57 fold | Fold Change PVRL4 (negative = upregulated): −3.32 fold | Fold Change RAB30 (negative = upregulated): −3.82 fold | Fold Change RASSF5 (negative = upregulated): −5.9 fold | Fold Change RBM26 (negative = upregulated): −6.5 fold | Fold Change REG1A (negative = upregulated): −3.05 fold | Fold Change RHOV (negative = upregulated): −4.66 fold | Fold Change RND1 (negative = upregulated): −5.3 fold | Fold Change RRAGC (negative = upregulated): −3.01 fold | Fold Change RSRP1 (negative = upregulated): −3.61 fold | Fold Change RYBP (negative = upregulated): −3.38 fold | Fold Change SAT2 (negative = upregulated): −3.99 fold | Fold Change SC5D (negative = upregulated): −3.39 fold | Fold Change SEC24D (negative = upregulated): −3.84 fold | Fold Change SLC20A1 (negative = upregulated): −4.87 fold | Fold Change SLC25A25 (negative = upregulated): −3.73 fold | Fold Change SLC30A1 (negative = upregulated): −4.84 fold | Fold Change SLN (negative = upregulated): −5.63 fold | Fold Change SPATA5 (negative = upregulated): −3.26 fold | Fold Change SQLE (negative = upregulated): −4.32 fold | Fold Change STK17B (negative = upregulated): −6.26 fold | Fold Change SUSD6 (negative = upregulated): −3.48 fold | Fold Change TAF5 (negative = upregulated): −3.41 fold | Fold Change TEF (negative = upregulated): −6.45 fold | Fold Change TGFBR3 (negative = upregulated): −3.86 fold | Fold Change TIAL1 (negative = upregulated): −4.62 fold | Fold Change TKT (negative = upregulated): −3.56 fold | Fold Change TMEM2 (negative = upregulated): −4.49 fold | Fold Change TMEM263 (negative = upregulated): −3.01 fold | Fold Change TMPRSS2 (negative = upregulated): −5.06 fold | Fold Change TNFSF13B (negative = upregulated): −4.12 fold | Fold Change TRIM24 (negative = upregulated): −3.01 fold | Fold Change UGDH (negative = upregulated): −4.16 fold | Fold Change YBX1 (negative = upregulated): −3.62 fold | Fold Change ZNF114 (negative = upregulated): −7.07 fold | Fold Change ZNRF3 (negative = upregulated): −3.14 fold | Fold Change ZSWIM6 (negative = upregulated): −3.28 fold | Fold Change SQSTM1 (negative = upregulated, first SQSTM1 entry): −4.27 fold | Fold Change SQSTM1 (negative = upregulated, second SQSTM1 entry): −3.5 fold | Fold Change AARS (positive = downregulated): 3.12 fold | Fold Change AJUBA (positive = downregulated): 8.65 fold | Fold Change AKTIP (positive = downregulated): 3.39 fold | Fold Change ARHGEF2 (positive = downregulated): 4.73 fold | Fold Change ASNS (positive = downregulated): 12.78 fold | Fold Change ASS1 (positive = downregulated): 7.34 fold | Fold Change ATF5; MIR4751 (positive = downregulated): 6.55 fold | Fold Change BRCA1 (positive = downregulated): 4.22 fold | Fold Change BTC (positive = downregulated): 5.04 fold | Fold Change C4BPB (positive = downregulated): 3.69 fold | Fold Change C5orf28 (positive = downregulated): 4.4 fold | Fold Change C12orf4 (positive = downregulated): 3.45 fold | Fold Change C14orf79 (positive = downregulated): 3.68 fold | Fold Change C17orf80 (positive = downregulated): 4.3 fold | Fold Change CARS (positive = downregulated): 5.53 fold | Fold Change CCDC125 (positive = downregulated): 3.31 fold | Fold Change CCDC138 (positive = downregulated): 3.07 fold | Fold Change CDC7 (positive = downregulated): 3.01 fold | Fold Change CDH11 (positive = downregulated): 4.69 fold | Fold Change CDX2 (positive = downregulated): 3.07 fold
